In patent publication US10202658B2, “Methods for determining hypersusceptibility of HIV-1 to non-nucleoside reverse transcriptase inhibitors” (Monogram Biosciences, Inc., priority 2005, dated 2019):

How the values were obtained:
Format in all cases: cell-based
[1] = test system: HIV-1, RT mutations: T215Y and 2 TAMs and H208 wt; assay: PhenoSense resistance test vector assay, clinical isolates with T215Y and 2 TAMs and H208 wt; settings: share of samples designated hypersusceptible
Procedure: (§1) In preferred embodiments, the phenotypic analysis of NNRTI hypersusceptibility is performed using PHENOSENSE™ (ViroLogic Inc., South San Francisco, Calif.). See Petropoulos et al., 2000, Antimicrob. Agents Chemother. 44:920-928; U.S. Pat. Nos. 5,837,464 and 6,242,187. PHENOSENSE™ is a phenotypic assay that achieves the benefits of phenotypic testing and overcomes the drawbacks of previous assays. Because the assay has been automated, PHENOSENSE™ provides high throughput methods under controlled conditions for determining NNRTI resistance, susceptibility, or hypersusceptibility of a large number of individual viral isolates.
(§2) The assay can be performed by first co-transfecting host cells with RTV DNA and a plasmid that expresses the envelope proteins of another retrovirus, for example, amphotropic murine leukemia virus (MLV). Following transfection, viral particles can be harvested from the cell culture and used to infect fresh target cells in the presence of varying amounts of anti-viral drug(s). The completion of a single round of viral replication in the fresh target cells can be detected by the means for detecting replication contained in the vector. In a preferred embodiment, the completion of a single round of viral replication results in the production of luciferase. By monitoring the amount of, e.g., luciferase activity in the presence of the varying amounts of antiviral drug(s), a resistance curve can be constructed by plotting luciferase activity versus drug concentration. The susceptibility of an HIV, or population of HIV, can be determined by measuring the concentration of antiviral drug at which the luciferase activity detected is half-maximal. This number, the IC50, provides a standard and convenient measure of drug resistance.
(§3) Patient-derived segment(s) corresponding to the HIV protease and reverse transcriptase coding regions were amplified by the reverse transcription-polymerase chain reaction method (RT-PCR) using viral RNA isolated from viral particles present in the plasma or serum of HIV-infected individuals as follows. […]

[2] = test system: HIV-1, RT mutations: T215Y and 2 TAMs and V118 wt; assay: PhenoSense resistance test vector assay, clinical isolates with T215Y and 2 TAMs and V118 wt; settings: share of samples designated hypersusceptible
Procedure: as §1, §2, §3

[3] = test system: HIV-1 NL4-3 SDM, M184V in reverse transcriptase; assay: NNRTI susceptibility of site-directed mutant (SDM) bearing only M184V in NL4-3 background; settings: mean+/-SD of 17 replicates, p<0.00001 versus reference
Procedure: as §1
as §2, with “By monitoring the amount of, e.g., luciferase activity in the presence of the varying amounts of antiviral drug(s), a resistance curve can be constructed by plotting luciferase activity versus drug concentration.” left out, “This number, the IC50, provides a standard and convenient measure of drug resistance.” left out
Resistance tests were carried out with resistance test vectors using two host cell types. […] The resistance test vector viral particles were then used to infect a second host cell (the target host cell) in which the expression of the indicator gene is measured.
The amount of luciferase activity detected in infected cells is used as a direct measure of “infectivity,” i.e., the ability of the virus to complete a single round of replication. Thus, drug resistance or sensitivity can be determined by plotting the amount of luciferase activity produced by patient derived viruses in the presence of varying concentrations of the antiviral drug. […]

[4] = test system: HIV-1, RT mutations: T215Y and 2 TAMs and V118I; assay: PhenoSense resistance test vector assay, clinical isolates with T215Y and 2 TAMs and V118I; settings: share of samples designated hypersusceptible
Procedure: as §1, §2, §3

SMILES	% IC50 0.4 fold < WT [1] [%]	% IC50 0.4 fold < WT [2] [%]	FC (fold change in IC50) [3]	% IC50 0.4 fold < WT [4] [%]
CC(C)Nc1cccnc1N1CCN(C(=O)c2cc3cc(NS(C)(=O)=O)ccc3[nH]2)CC1 [DLV, delavirdine]	68.7	83.9	0.65+/−0.05	63.8
Cc1ccnc2c1NC(=O)c1cccnc1N2C1CC1 [NVP, nevirapine]	34.8	37.5	0.67+/−0.05	27.1
O=C1Nc2ccc(Cl)cc2[C@@](C#CC2CC2)(C(F)(F)F)O1 [EFV, efavirenz]	55.1	78.1	0.65+/−0.03	39.6
